According to patent US4801456A, “Growth hormone-releasing factor analogs” (International Minerals & Chemical Corp., priority 1987, dated 1989):
Square brackets hold non-standard residues; d marks the D form. Ends that are not written are not given here. Peptide text beside a SMILES is read from it. Nle = CCCC[C@H](N)C(=O)O

Experiments:
[1] = system: rat pituitary cells in tissue culture; experiment: Bioassay of hGRF analogs: GH release from cultured pituitary cells; type: cell-based; conditions: for Dose Needed to Release 2.01 μg/ml of GH (ED50 value for hGRF) / Maximum GH Released / Relative Maximum Activity (% of hGRF): from curves generated by ALLFIT; for GH release at dosages comparable to native hGRF: referring to Table 1; for Potency: (ED50 of hGRF)/(Dose required to give same response as ED50 of hGRF): relative to hGRF(1-44)-NH2 = 100
From the text: The assay for biological activity, which is based on the ability to stimulate release of growth hormone in rat pituitary cells in tissue culture, has been described in detail (Culler, M. D.; Kenjo, T.: Obara, N.; Arimuar, A., Stimulation of cAMP. Accumulation by Human Pancreatic GH-Releasing Factor-(1-44). Am. J. Physiol. 1984, 247 (Endocrinol.Metab.10), E609-E615.
ALLFIT, the 4-parameter logistic curve fitting program available from the Biomedical Computer Technology Information Center, Vanderbilt Medical Center, Nashville TN, was used to determine ED50 and maximal stimulated values from the data. In several instances, the amount of GH released reached a maximum value and decreased with further increasing doses of the hGRF analogs. To simplify the data analysis, these values were not used in the calculations. The calculated maximal responses, the doses of the analog required to release the amount of GH released at the ED50 of the standard (hGRF) and the potencies of the analogs relative to hGRF, are given in Table 2. Generally all novel analogs were fully active and were able to stimulate the release of growth hormone with maximal values of GH release being within 80% of the value for natural hGRF.

GH releasing activity = conditions: reported by Rivier et al.; cited from earlier work

Compound	GH Released (mean ± (S.E.)) ([1]; Dose 1 × 10^-6 M)	GH Released (mean ± (S.E.)) ([1]; Dose 1 × 10^-7 M)	GH Released (mean ± (S.E.)) ([1]; Dose 1 × 10^-8 M)	GH Released (mean ± (S.E.)) ([1]; Dose 1 × 10^-9 M)	GH Released (mean ± (S.E.)) ([1]; Dose 1 × 10^-10 M)	GH Released (mean ± (S.E.)) ([1]; Dose 1 × 10^-11 M)	Dose Needed to Release 2.01 μg/ml of GH (ED50 value for hGRF) [1]	Maximum GH Released [1]	Relative Maximum Activity (% of hGRF) [1]	GH release at dosages comparable to native hGRF [1]	Potency: (ED50 of hGRF)/(Dose required to give same response as ED50 of hGRF) [1]	Biological activity compared with natural hGRF(1-44)--NH2 ([1]; natural hGRF isolated from a human pancreatic tumor (Salk Institute standard))	activity compared in vitro with the parent hpGRF(1-40)--OH (GH releasing activity)
CCCC[C@H](NC(=O)[C@@H](NC(=O)[C@H](CC(N)=O)NC(=O)[C@H](CCC(N)=O)NC(=O)[C@H](CC(C)C)NC(=O)[C@H](CC(C)C)NC(=O)[C@H](CCCCN)NC(=O)[C@H](CCCNC(=N)N)NC(=O)[C@H](C)NC(=O)[C@H](CO)NC(=O)[C@H](CC(C)C)NC(=O)[C@H](CCC(N)=O)NC(=O)CNC(=O)[C@H](CC(C)C)NC(=O)[C@@H](NC(=O)[C@H](CCCCN)NC(=O)[C@H](CCCNC(=N)N)NC(=O)[C@H](Cc1ccc(O)cc1)NC(=O)[C@H](CO)NC(=O)[C@H](CC(=O)O)NC(=O)[C@@H](NC(=O)[C@H](Cc1ccccc1)NC(=O)[C@@H](NC(=O)[C@H](C)NC(=O)[C@H](CC(=O)O)NC(=O)[C@H](C)NC(=O)[C@@H](N)Cc1ccc(O)cc1)[C@@H](C)CC)[C@@H](C)O)C(C)C)[C@@H](C)CC)C(=O)N[C@@H](CO)C(=O)N[C@@H](CCCNC(=N)N)C(=O)N[C@@H](CCC(N)=O)C(=O)N[C@@H](CCC(N)=O)C(N)=O [[Asp^8,Asn^25,Nle^27], [Asp^8,Asn^25,Nle^27]-hGRF(1-31)--NH2] (H-YADAIFTDSYRKVLGQLSARKLLQNI[Nle]SRQQ-NH2)	2.86 (0.07) μg/mL	2.93 (0.17) μg/mL	2.86 (0.08) μg/mL	2.59 (0.17) μg/mL	0.96 (0.07) μg/mL	0.74 (0.09) μg/mL	420 pM	2.89 µg/mL	87%	induced GH release in dosages comparable to those for native hGRF	76%		
CCCC[C@H](NC(=O)[C@@H](NC(=O)[C@H](CC(=O)O)NC(=O)[C@H](CCC(N)=O)NC(=O)[C@H](CC(C)C)NC(=O)[C@H](CC(C)C)NC(=O)[C@H](CCCCN)NC(=O)[C@H](CCCNC(=N)N)NC(=O)[C@H](C)NC(=O)[C@H](CO)NC(=O)[C@H](CC(C)C)NC(=O)[C@H](CCC(N)=O)NC(=O)CNC(=O)[C@H](CC(C)C)NC(=O)[C@@H](NC(=O)[C@H](CCCCN)NC(=O)[C@H](CCCNC(=N)N)NC(=O)[C@H](Cc1ccc(O)cc1)NC(=O)[C@H](CO)NC(=O)[C@H](CC(=O)O)NC(=O)[C@@H](NC(=O)[C@H](Cc1ccccc1)NC(=O)[C@@H](NC(=O)[C@H](C)NC(=O)[C@H](CC(=O)O)NC(=O)[C@H](C)NC(=O)[C@@H](N)Cc1ccc(O)cc1)[C@@H](C)CC)[C@@H](C)O)C(C)C)[C@@H](C)CC)C(=O)N[C@@H](CO)C(=O)N[C@@H](CCCNC(=N)N)C(=O)N[C@@H](CCC(N)=O)C(=O)N[C@@H](CCC(N)=O)C(N)=O [[Asp^8,Nle^27], [Asp^8,Nle^27]-hGRF(1-31)---NH2] (H-YADAIFTDSYRKVLGQLSARKLLQDI[Nle]SRQQ-NH2)	3.17 (0.24) μg/mL	3.52 (0.22) μg/mL	3.59 (0.17) μg/mL	2.69 (0.12) μg/mL	1.18 (0.10) μg/mL	0.61 (0.03) μg/mL	390 pM	3.60 µg/mL	109%	induced GH release in dosages comparable to those for native hGRF	82%		
CC[C@H](C)[C@H](NC(=O)[C@H](C)NC(=O)[C@H](CC(=O)O)NC(=O)[C@H](C)NC(=O)[C@@H](N)Cc1ccc(O)cc1)C(=O)N[C@@H](Cc1ccccc1)C(=O)N[C@H](C(=O)N[C@@H](CC(N)=O)C(=O)N[C@@H](CO)C(=O)N[C@@H](Cc1ccc(O)cc1)C(=O)N[C@@H](CCCNC(=N)N)C(=O)N[C@@H](CCCCN)C(=O)N[C@H](C(=O)N[C@@H](CC(C)C)C(=O)NCC(=O)N[C@@H](CCC(N)=O)C(=O)N[C@@H](CC(C)C)C(=O)N[C@@H](CO)C(=O)N[C@@H](C)C(=O)N[C@@H](CCCNC(=N)N)C(=O)N[C@@H](CCCCN)C(=O)N[C@@H](CC(C)C)C(=O)N[C@@H](CC(C)C)C(=O)N[C@@H](CCC(N)=O)C(=O)N[C@@H](CC(=O)O)C(=O)N[C@H](C(=O)N[C@@H](CCSC)C(=O)N[C@@H](CO)C(=O)N[C@@H](CCCNC(=N)N)C(=O)N[C@@H](CCC(N)=O)C(=O)N[C@@H](CCC(N)=O)C(=O)NCC(=O)N[C@@H](CCC(=O)O)C(=O)N[C@@H](CO)C(=O)N[C@@H](CC(N)=O)C(=O)N[C@@H](CCC(N)=O)C(=O)N[C@@H](CCC(=O)O)C(=O)N[C@@H](CCCNC(=N)N)C(=O)NCC(=O)N[C@@H](C)C(=O)N[C@@H](CCCNC(=N)N)C(=O)N[C@@H](C)C(=O)N[C@@H](CCCNC(=N)N)C(=O)N[C@@H](CC(C)C)C(N)=O)[C@@H](C)CC)C(C)C)[C@@H](C)O [hGRF(1-44)-NH2, hGRF(1-44)--NH2, reference compound]	2.81 (0.13) μg/mL	3.17 (0.12) μg/mL	3.44 (0.23) μg/mL	2.84 (0.12) μg/mL	1.16 (0.04) μg/mL	0.73 (0.03) μg/mL	320 pM	3.31 µg/mL	100%		100%	identical to the natural hGRF(1-44)--NH2	
hpGRF(1-27)--NH2 (YADAIFTNSYRKVLGQLSARKLLQDIM-NH2; UniProt P01286 32-58, looked up, fragment) [shortened GRF analog tested by Rivier et al]													exhibited similar activity
hpGRF(1-29)--NH2 (YADAIFTNSYRKVLGQLSARKLLQDIMSR-NH2; UniProt P01286 32-60, looked up, fragment) [shortened GRF analog tested by Rivier et al]													exhibited similar activity
hpGRF(1-32)--NH2 (YADAIFTNSYRKVLGQLSARKLLQDIMSRQQG-NH2; UniProt P01286 32-63, looked up, fragment) [shortened GRF analog tested by Rivier et al]													exhibited similar activity
hpGRF(1-39)--NH2 (YADAIFTNSYRKVLGQLSARKLLQDIMSRQQGESNQERG-NH2; UniProt P01286 32-70, looked up, fragment) [shortened GRF analog tested by Rivier et al]													exhibited similar activity
hpGRF(1-40)--NH2 (YADAIFTNSYRKVLGQLSARKLLQDIMSRQQGESNQERGA-NH2; UniProt P01286 32-71, looked up, fragment) [shortened GRF analog tested by Rivier et al]													exhibited similar activity
